Laboratory results from ChEMBL document CHEMBL2396564, “Synthesis and biological evaluation of a targeted DNA-binding transcriptional activator with HDAC8 inhibitory activity” (Bioorg Med Chem, 2013).
Active and inactive are the calls of the source. The rule behind the calls is not given here.

Assays:
[1] = target: T1, Histone deacetylase 8 (Mus musculus) (UniProt Q8VH37); assay: Inhibition of HDAC8 in C57BL/6 mouse embryonic fibroblasts assessed as induction of histone H3 hyperacetylation in promoter region of Nanog at 100 nM after 24 hrs by ChIP analysis
T1 sequence (whole entry): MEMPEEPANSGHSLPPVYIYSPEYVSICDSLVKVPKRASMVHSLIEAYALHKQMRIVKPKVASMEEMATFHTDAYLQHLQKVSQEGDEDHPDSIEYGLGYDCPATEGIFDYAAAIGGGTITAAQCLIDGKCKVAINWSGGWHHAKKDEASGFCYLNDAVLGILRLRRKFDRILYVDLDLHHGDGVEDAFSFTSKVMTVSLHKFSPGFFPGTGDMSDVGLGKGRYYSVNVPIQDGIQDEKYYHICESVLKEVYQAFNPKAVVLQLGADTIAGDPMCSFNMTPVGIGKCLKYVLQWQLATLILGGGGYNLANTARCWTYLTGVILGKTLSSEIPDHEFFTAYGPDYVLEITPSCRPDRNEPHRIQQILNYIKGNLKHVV

[2] = target: T1, Histone deacetylase 8 (Mus musculus); assay: Inhibition of HDAC8 in C57BL/6 mouse embryonic fibroblasts assessed as induction of histone H3 hyperacetylation in promoter region of Lhx1 at 100 nM after 24 hrs by ChIP analysis
[3] = target: T1, Histone deacetylase 8 (Mus musculus); assay: Inhibition of HDAC8 in C57BL/6 mouse embryonic fibroblasts assessed as induction of histone H3 hyperacetylation in promoter region of Oct3/4 at 100 nM after 24 hrs by ChIP analysis
[4] = target: T1, Histone deacetylase 8 (Mus musculus); assay: Inhibition of HDAC8 in C57BL/6 mouse embryonic fibroblasts assessed as upregulation of Otx2 expression at 100 nM after 24 hrs by qPCR analysis relative to control
Histone deacetylase 2 = Histone deacetylase 2 (Homo sapiens, UniProt Q92769); assay: Inhibition of HDAC2 (unknown origin) after 30 mins by fluorometric analysis
[5] = target: T1, Histone deacetylase 8 (Mus musculus); assay: Inhibition of HDAC8 in C57BL/6 mouse embryonic fibroblasts assessed as induction of histone H3 hyperacetylation in promoter region of Cdh1 at 100 nM after 24 hrs by ChIP analysis
[6] = target: T1, Histone deacetylase 8 (Mus musculus); assay: Inhibition of HDAC8 in C57BL/6 mouse embryonic fibroblasts assessed as induction of histone H3 hyperacetylation in promoter region of Otx2 at 100 nM after 24 hrs by ChIP analysis
Histone deacetylase 1 = Histone deacetylase 1 (Homo sapiens, UniProt Q13547); assay: Inhibition of HDAC1 (unknown origin) after 30 mins by fluorometric analysis
[7] = target: T1, Histone deacetylase 8 (Mus musculus); assay: Inhibition of HDAC8 in C57BL/6 mouse embryonic fibroblasts assessed as upregulation of Nanog expression at 100 nM after 24 hrs by qPCR analysis relative to control
MEF [8] = assay: Upregulation of Klf4 expression in C57BL/6 mouse embryonic fibroblasts at 100 nM after 24 hrs by qPCR analysis; assay type: functional, cell-based
[9] = target: T1, Histone deacetylase 8 (Mus musculus); assay: Inhibition of HDAC8 in C57BL/6 mouse embryonic fibroblasts assessed as upregulation of Lhx1 expression at 100 nM after 24 hrs by qPCR analysis relative to control
[10] = target: T1, Histone deacetylase 8 (Mus musculus); assay: Inhibition of HDAC8 in C57BL/6 mouse embryonic fibroblasts assessed as induction of histone H3 hyperacetylation in promoter region of Rex1 at 100 nM after 24 hrs by ChIP analysis
MEF [11] = assay: Cytotoxicity against C57BL/6 mouse embryonic fibroblasts assessed as cell viability at 10 uM after 24 hrs by WST-8 assay; assay type: cell-based
[12] = target: T1, Histone deacetylase 8 (Mus musculus); assay: Inhibition of HDAC8 in C57BL/6 mouse embryonic fibroblasts assessed as upregulation of Sox2 expression at 100 nM after 24 hrs by qPCR analysis relative to control
[13] = target: T1, Histone deacetylase 8 (Mus musculus); assay: Inhibition of HDAC8 in C57BL/6 mouse embryonic fibroblasts assessed as upregulation of Rex1 expression at 100 nM after 24 hrs by qPCR analysis relative to control
[14] = target: T2, Histone deacetylase 8 (Homo sapiens) (UniProt Q9BY41); assay: Ratio of trichostatin A IC50 to compound IC50 for HDAC8 (unknown origin)
T2 sequence (whole entry): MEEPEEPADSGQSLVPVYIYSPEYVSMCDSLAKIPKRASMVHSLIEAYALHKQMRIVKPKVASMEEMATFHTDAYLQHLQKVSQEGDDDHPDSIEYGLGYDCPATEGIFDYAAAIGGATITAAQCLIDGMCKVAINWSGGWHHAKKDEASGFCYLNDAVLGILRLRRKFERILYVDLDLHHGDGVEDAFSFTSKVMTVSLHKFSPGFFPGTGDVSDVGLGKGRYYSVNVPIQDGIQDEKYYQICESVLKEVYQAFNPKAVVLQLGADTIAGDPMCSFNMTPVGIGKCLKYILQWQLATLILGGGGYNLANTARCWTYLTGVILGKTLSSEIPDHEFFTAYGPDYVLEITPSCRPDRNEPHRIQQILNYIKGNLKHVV

MEF [15] = assay: Upregulation of c-Myc expression in C57BL/6 mouse embryonic fibroblasts at 100 nM after 24 hrs by qPCR analysis; assay type: functional, cell-based
[16] = target: T1, Histone deacetylase 8 (Mus musculus); assay: Inhibition of HDAC8 in C57BL/6 mouse embryonic fibroblasts assessed as upregulation of Oct3/4 expression at 100 nM after 24 hrs by qPCR analysis relative to control
[17] = target: T1, Histone deacetylase 8 (Mus musculus); assay: Inhibition of HDAC8 in C57BL/6 mouse embryonic fibroblasts assessed as upregulation of Cdh1 expression at 100 nM after 24 hrs by qPCR analysis relative to control
[18] = target: T1, Histone deacetylase 8 (Mus musculus); assay: Inhibition of HDAC8 in C57BL/6 mouse embryonic fibroblasts assessed as upregulation of Dppa4 expression at 100 nM after 24 hrs by qPCR analysis relative to control
Histone deacetylase 8 = target: T3, Histone deacetylase 8 (Homo sapiens, UniProt Q9BY41); assay: Inhibition of HDAC8 (unknown origin) after 30 mins by fluorometric analysis
T3 sequence (Q9BY41 whole entry): T2 sequence (whole entry)

Sequence of Histone deacetylase 1 (Q13547 whole entry): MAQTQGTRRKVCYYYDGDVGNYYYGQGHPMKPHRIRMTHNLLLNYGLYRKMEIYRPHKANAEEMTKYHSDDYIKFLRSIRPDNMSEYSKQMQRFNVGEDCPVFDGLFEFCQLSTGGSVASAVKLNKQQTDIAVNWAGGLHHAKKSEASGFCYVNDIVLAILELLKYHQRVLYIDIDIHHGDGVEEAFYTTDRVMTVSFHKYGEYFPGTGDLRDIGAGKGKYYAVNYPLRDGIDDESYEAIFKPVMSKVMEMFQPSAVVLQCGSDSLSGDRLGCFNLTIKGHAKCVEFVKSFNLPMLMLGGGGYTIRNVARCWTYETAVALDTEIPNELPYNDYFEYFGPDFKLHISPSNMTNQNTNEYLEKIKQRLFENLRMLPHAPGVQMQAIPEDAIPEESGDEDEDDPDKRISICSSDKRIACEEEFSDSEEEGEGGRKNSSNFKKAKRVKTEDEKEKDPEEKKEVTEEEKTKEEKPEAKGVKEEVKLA
Sequence of Histone deacetylase 2 (Q92769 whole entry): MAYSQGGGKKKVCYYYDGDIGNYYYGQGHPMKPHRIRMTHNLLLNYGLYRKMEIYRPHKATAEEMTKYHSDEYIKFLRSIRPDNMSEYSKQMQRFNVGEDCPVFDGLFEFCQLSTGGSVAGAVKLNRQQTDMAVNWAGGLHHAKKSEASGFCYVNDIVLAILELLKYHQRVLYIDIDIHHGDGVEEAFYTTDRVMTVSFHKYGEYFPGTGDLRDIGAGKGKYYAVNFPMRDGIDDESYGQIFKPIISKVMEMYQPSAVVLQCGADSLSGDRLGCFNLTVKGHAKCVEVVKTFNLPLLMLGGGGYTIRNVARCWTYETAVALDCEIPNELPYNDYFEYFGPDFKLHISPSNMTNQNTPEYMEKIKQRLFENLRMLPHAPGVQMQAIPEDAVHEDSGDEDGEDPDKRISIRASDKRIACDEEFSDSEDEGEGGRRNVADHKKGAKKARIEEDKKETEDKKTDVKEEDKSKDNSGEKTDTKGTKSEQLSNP

Row | SMILES | inhibition [1] | inhibition [2] | inhibition [3] | fold change (FC) [4] | IC50 (Histone deacetylase 2) [nM] | inhibition [5] | inhibition [6] | IC50 (Histone deacetylase 1) [nM] | fold change (FC) [7] | Activity (MEF [8]) | inhibition [10] | Activity (MEF [11]) | fold change (FC) [12] | fold change (FC) [13] | Activity (MEF [15]) | fold change (FC) [16] | fold change (FC) [17] | fold change (FC) [18] | IC50 (Histone deacetylase 8) [nM] | also measured
1 | CN(C)CCCNC(=O)c1cc(NC(=O)c2cc(NC(=O)c3cc(NC(=O)c4nc(NC(=O)CCCNC(=O)c5cc(NC(=O)c6cc(NC(=O)c7cc(NC(=O)c8nc(NC(=O)CCNC(=O)CCNC(=O)CCCCCCC(=O)NO)cn8C)cn7C)cn6C)cn5C)cn4C)cn3C)cn2C)cn1C | Active | Active | Active | 74 | 1120 | Active | Active | 490 | 16 | inactive | Active | Non-toxic | 6 | 60 | inactive | 20 | 25 | 2 | 130 | fold change (FC) [9]: 2.6; Ratio IC50 [14]: 10
2 | CN(C)CCCNC(=O)c1cc(NC(=O)c2cc(NC(=O)c3cc(NC(=O)c4nc(NC(=O)CCCNC(=O)c5cc(NC(=O)c6cc(NC(=O)c7cc(NC(=O)c8nc(NC(=O)CCNC(=O)CCNC(=O)c9ccc(NC(=O)CCCCCCC(=O)NO)cc9)cn8C)cn7C)cn6C)cn5C)cn4C)cn3C)cn2C)cn1C | Active | inactive | Active | 40 | 770 | Active | Active | 370 | 20 | inactive | Active | Non-toxic | 6 | 60 | inactive | 20 | 25 | 2 | 820 | inhibition [9]: inactive
